Laboratory results published in US20200262877A1, “ION CHANNEL-BINDING PEPTIDES AND METHODS OF USE THEREOF” (priority 2017, published 2020).
Read-outs that look alike come from different tables or passages of the source. Where a SMILES comes first, the peptide text is derived from it. Bridges are numbered along the chain shown (N, C = ends). Where no end group is shown, it is not given here.

Columns and labels:
[1] = target: Kv1.5 potassium channel (human KCNA5 gene) (Homo sapiens, UniProt P22460); test: cell-based; design: host or cells: CHO; settings: human Kv1.5 in CHO cells
[2] = target: Kv1.3 potassium channel (human KCNA3 gene) (Homo sapiens, UniProt P22001); test: cell-based; design: host or cells: CHO; settings: human Kv1.3 in CHO cells
[3] = target: T1, Nav1.5 cardiac sodium channel (human SCN5A gene) (Homo sapiens, UniProt Q14524); test: cell-based
Nav1.7 = target: T2, Nav1.7 (Homo sapiens, UniProt Q15858); test: cell-based; format: cell-based; settings: 0.2 or 20 μM; FIG. 2
T2 construct: host or cells: HEK293 or CHO

panel of 20 ion channels = format: cell-based; settings: 0.2 or 20 μM, FIG. 2; for Activity on potassium channels: potassium channels of the panel
Experimental: This example describes a method for assaying ion channel activity in cells.
Peptides were screened in duplicate at final concentrations of 20 μM and 200 nM, as determined by amino acid analysis, and diluted into HEPES buffered physiological saline (HBPS). HEK293 or CHO cells from the American Type Culture Collection (ATCC) were transfected with the appropriate ion channel before use. HEK293 cells were grown in Dulbecco's Modified Eagle Medium/Nutrient Mixture F-12, and CHO cells were cultured in Ham's F-12 media. All cultures were supplemented with 10% fetal bovine serum, 100 U/ml penicillin G, 100 μg/ml streptomycin sulfate, and the appropriate selection antibiotics. Prior to use, cells were washed twice with Hank's Balanced Salt Solution, and treated with Accutase cell detachment solution (Sigma-Aldrich). Cells were then washed. Peptides and controls were incubated with cells for at least five minutes.
Percent inhibition was defined as: (1-(Ipeptide/Icontrol))×100%).
Percent values were calculated using the following formula: % activation=(IPeptide/Icontrol)×100%, where IPeptide is the current produced by co-application a peptide with agonist, and Icontrol refers to the current produced by stimulation in control. Control used for each ion channel is the reference compound matched to a particular channel, as illustrated in TABLE 10 below.

[4] = target: Nav1.4 sodium channel (human SCN4A gene) (Homo sapiens, UniProt P35499); test: cell-based; design: host or cells: CHO; settings: human Nav1.4 in CHO cells
[5] = target: T1, Nav1.5 cardiac sodium channel (human SCN5A gene); settings: read-out: IC50 Nav1.5 ion channel inhibition, TP2; human Nav1.5 in CHO cells; TP2 (inactivated state inhibition)
Kv1.3 [6] = target: T3, Kv1.3 (Homo sapiens, UniProt P22001); test: cell-based; format: cell-based; settings: for activity at 20 µM: Kv1.3, peptide at 20 μM, percentage of control, 100% = no change, read-out: Ion channel activity (ion channel inhibition)
T3 construct: host or cells: HEK293 or CHO
In short: (§1)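 Peptides were tested in duplicate at final 20 μM and 200 nM, with concentration set by amino acid analysis, in HEPES-buffered saline. They were applied for at least 5 min to HEK293 or CHO cells transfected with each channel. Currents were expressed as % inhibition, 1-(Ipeptide/Icontrol)×100, or % activation, Ipeptide/Icontrol×100, against a channel-matched reference compound.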

hERG [7] = target: T4, hERG (Homo sapiens, UniProt Q12809); test: in vitro; settings: for Activity against / inhibition of hERG (Kv11.1): 0.2 or 20 μM, FIG. 2; for activity at 20 µM: human
In short: as §1

[8] = target: Nav1.7 sodium channel (human SCN9A gene) (Homo sapiens, UniProt Q15858); test: cell-based; design: expressed in transfected cells; host or cells: CHO cells; settings: human Nav1.7 in CHO cells
[9] = target: Nav1.3 sodium channel (human SCN3A gene) (Homo sapiens, UniProt Q9NY46); test: cell-based; design: host or cells: CHO; settings: human Nav1.3 in CHO cells
hERG [10] = target: T4, hERG; settings: cited from earlier work
Kv1.2 = target: T5, Kv1.2 (Homo sapiens, UniProt P16389); test: cell-based; format: cell-based; settings: Kv1.2, percentage of control, 100% = no change, read-out: Ion channel activity (ion channel inhibition); for activity at 20 µM: peptide at 20 μM
T5 construct: host or cells: HEK293 or CHO
In short: as §1

[11] = system: calcium channels (ryanodine receptors); settings: prior reports; cited from earlier work
Kv1.3 [12] = target: T3, Kv1.3; settings: prior reports; cited from earlier work
[13] = test pulse TP1, read-out: IC50 Kv1.5 ion channel inhibition, TP1
[14] = test pulse TP6, read-out: IC50 Kv1.5 ion channel inhibition, TP6
[15] = test pulse TP1, read-out: IC50 Kv1.3 ion channel inhibition, TP1
[16] = test pulse TP6, read-out: IC50 Kv1.3 ion channel inhibition, TP6
[17] = TP1 (tonic inhibition), read-out: IC50 Nav1.4 ion channel inhibition, TP1
[18] = TP2 (inactivated state inhibition), read-out: IC50 Nav1.4 ion channel inhibition, TP2
[19] = TP1 (tonic inhibition), read-out: IC50 Nav1.7 ion channel inhibition, TP1
[20] = TP2 (inactivated state inhibition), read-out: IC50 Nav1.7 ion channel inhibition, TP2
[21] = TP1 (tonic inhibition), read-out: IC50 Nav1.3 ion channel inhibition, TP1
[22] = TP2 (inactivated state inhibition), read-out: IC50 Nav1.3 ion channel inhibition, TP2

Chain of Kv1.5 potassium channel (human KCNA5 gene) (P22460 whole entry): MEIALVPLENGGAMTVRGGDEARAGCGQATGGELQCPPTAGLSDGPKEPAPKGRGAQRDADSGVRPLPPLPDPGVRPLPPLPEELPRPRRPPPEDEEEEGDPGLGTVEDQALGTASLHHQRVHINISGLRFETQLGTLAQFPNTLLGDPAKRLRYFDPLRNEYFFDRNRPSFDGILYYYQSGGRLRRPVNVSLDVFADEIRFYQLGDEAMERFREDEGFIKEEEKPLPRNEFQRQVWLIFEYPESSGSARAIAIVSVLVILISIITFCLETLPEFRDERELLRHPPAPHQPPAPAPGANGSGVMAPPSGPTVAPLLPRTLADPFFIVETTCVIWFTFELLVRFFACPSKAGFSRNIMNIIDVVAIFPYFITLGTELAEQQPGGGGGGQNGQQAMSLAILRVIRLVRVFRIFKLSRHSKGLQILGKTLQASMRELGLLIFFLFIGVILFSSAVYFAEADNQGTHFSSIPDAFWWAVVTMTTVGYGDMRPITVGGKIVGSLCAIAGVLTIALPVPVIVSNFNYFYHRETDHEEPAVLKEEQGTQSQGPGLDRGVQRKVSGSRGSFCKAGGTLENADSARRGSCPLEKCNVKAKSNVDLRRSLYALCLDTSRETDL
Chain of Nav1.4 sodium channel (human SCN4A gene) (P35499 whole entry): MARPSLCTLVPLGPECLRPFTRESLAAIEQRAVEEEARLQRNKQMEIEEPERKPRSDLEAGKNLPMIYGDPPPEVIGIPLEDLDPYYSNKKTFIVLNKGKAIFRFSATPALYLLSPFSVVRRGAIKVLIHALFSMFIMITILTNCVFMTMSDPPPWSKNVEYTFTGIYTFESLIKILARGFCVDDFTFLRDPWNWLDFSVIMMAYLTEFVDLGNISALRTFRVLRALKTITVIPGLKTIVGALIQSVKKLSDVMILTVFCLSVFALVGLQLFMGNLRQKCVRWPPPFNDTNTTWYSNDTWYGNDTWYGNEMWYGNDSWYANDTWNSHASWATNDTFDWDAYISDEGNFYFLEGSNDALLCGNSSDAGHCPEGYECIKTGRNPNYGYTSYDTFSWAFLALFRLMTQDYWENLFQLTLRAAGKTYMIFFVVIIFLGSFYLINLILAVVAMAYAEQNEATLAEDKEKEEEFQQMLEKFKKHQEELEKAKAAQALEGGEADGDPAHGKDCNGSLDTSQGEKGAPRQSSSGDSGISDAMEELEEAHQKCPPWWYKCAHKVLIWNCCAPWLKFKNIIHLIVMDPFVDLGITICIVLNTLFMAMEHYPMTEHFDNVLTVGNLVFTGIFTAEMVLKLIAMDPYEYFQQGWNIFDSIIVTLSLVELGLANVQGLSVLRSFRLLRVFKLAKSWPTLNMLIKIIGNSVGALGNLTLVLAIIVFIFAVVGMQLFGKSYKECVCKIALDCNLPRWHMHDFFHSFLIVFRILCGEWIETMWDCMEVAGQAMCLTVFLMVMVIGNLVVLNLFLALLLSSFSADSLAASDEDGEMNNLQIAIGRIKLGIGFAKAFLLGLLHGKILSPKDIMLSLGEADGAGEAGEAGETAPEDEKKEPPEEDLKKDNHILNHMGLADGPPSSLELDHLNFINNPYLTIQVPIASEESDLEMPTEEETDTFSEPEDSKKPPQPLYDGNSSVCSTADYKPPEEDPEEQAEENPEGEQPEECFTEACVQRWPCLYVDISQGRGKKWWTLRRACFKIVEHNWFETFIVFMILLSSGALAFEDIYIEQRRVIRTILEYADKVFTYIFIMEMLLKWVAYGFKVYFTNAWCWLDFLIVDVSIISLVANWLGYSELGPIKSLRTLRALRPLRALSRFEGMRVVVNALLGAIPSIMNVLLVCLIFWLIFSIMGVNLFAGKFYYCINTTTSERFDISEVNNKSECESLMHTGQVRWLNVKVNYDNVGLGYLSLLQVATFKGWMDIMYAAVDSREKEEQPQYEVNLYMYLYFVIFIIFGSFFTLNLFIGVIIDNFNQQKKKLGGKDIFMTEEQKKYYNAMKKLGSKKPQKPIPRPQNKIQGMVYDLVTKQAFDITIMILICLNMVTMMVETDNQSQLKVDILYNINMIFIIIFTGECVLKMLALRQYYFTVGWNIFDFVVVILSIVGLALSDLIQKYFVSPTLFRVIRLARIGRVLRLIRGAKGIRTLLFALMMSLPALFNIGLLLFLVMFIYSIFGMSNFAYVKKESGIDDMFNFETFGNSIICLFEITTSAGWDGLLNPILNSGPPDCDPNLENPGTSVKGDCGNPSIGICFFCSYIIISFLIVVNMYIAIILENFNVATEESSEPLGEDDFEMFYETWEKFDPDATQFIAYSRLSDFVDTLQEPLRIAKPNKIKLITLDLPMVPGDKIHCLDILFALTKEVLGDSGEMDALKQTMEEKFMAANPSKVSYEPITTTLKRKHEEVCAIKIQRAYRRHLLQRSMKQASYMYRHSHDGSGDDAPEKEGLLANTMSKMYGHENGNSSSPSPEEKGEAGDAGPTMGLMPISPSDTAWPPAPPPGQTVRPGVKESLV
T5 sequence (P16389 whole entry): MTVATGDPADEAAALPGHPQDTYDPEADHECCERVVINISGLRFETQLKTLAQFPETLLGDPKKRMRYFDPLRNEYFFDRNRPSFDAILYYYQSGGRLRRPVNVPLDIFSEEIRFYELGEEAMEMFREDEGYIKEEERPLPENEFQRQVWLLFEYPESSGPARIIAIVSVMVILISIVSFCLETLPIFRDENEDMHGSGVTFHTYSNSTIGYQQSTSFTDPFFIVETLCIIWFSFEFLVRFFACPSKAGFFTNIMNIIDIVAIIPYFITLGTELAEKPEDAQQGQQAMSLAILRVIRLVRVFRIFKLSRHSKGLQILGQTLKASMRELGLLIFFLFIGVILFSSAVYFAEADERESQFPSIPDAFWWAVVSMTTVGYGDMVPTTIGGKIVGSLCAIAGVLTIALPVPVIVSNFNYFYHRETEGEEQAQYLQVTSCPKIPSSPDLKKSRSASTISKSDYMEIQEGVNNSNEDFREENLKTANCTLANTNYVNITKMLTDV
T4 sequence (Q12809 whole entry): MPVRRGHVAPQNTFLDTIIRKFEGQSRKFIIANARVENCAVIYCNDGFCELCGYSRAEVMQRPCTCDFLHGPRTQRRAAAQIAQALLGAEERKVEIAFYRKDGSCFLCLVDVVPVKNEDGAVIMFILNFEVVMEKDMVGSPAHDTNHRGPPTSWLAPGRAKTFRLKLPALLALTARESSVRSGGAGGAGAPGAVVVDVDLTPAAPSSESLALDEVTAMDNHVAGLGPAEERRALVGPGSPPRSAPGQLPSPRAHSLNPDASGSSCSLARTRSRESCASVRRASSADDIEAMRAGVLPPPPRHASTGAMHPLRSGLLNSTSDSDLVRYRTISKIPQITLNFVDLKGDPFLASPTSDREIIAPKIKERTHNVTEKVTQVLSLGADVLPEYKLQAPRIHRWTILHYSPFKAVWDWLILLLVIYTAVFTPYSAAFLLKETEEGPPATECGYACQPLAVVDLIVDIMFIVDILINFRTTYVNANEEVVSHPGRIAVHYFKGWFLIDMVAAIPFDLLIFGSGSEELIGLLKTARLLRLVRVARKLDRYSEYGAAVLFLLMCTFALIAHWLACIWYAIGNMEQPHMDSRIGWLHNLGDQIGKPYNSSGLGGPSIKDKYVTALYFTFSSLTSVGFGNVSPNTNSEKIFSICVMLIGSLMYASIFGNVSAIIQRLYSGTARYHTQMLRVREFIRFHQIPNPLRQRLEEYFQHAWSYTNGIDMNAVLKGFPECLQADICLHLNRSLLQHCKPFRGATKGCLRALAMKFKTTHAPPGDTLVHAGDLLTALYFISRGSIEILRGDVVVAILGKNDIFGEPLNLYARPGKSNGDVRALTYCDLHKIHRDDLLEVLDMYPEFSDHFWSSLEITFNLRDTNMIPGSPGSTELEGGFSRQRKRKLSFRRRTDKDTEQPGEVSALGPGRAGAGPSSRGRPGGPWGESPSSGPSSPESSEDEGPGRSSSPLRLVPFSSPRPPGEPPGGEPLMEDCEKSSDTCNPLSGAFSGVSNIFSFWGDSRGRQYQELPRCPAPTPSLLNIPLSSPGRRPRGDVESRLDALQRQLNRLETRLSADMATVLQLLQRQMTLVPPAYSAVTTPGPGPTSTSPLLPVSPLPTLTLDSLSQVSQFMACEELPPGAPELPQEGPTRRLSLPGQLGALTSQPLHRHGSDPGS
T3 sequence (P22001 whole entry): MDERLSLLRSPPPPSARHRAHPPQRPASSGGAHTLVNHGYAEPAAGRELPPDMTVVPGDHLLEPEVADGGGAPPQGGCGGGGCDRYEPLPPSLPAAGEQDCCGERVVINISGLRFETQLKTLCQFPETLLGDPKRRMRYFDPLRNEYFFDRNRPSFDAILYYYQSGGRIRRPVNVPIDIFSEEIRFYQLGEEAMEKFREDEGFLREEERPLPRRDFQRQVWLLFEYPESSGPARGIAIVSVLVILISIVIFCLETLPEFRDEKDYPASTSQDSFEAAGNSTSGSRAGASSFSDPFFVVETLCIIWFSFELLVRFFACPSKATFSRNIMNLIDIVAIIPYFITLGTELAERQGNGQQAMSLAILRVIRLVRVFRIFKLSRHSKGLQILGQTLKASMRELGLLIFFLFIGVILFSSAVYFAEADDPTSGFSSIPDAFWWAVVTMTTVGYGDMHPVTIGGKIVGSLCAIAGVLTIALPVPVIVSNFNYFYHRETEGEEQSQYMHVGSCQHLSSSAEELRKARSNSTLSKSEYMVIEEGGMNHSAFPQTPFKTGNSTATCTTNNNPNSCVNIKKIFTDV
Chain of Kv1.3 potassium channel (human KCNA3 gene) (P22001 whole entry): as above

## CC[C@H](C)[C@@H]1NC(=O)[C@@H]2CSSC[C@H](NC(=O)[C@H](CCCCN)NC(=O)[C@@H](NC(=O)[C@H](CC(N)=O)NC(=O)[C@@H](NC(=O)[C@@H]3CCCN3C(=O)[C@@H](NC(=O)CNC(=O)[C@H](CO)NC(=O)CN)C(C)C)[C@@H](C)CC)C(C)C)C(=O)N[C@@H](CCCNC(=N)N)C(=O)NCC(=O)N[C@@H](CO)C(=O)N[C@@H](CCCNC(=N)N)C(=O)N[C@@H](CC(=O)O)C(=O)N[C@H]3CSSC[C@H](NC(=O)[C@H](CCCCN)NC(=O)[C@H](CO)NC(=O)[C@H](CC(N)=O)NC1=O)C(=O)N[C@@H](Cc1c[nH]cn1)C(=O)N[C@H](C(=O)N[C@H](C(=O)N1CCC[C@H]1C(=O)O)[C@@H](C)O)CSSC[C@H](NC(=O)[C@@H]1CCCN1C(=O)[C@H](CC(=O)O)NC(=O)[C@H](CC(C)C)NC3=O)C(=O)N[C@@H](CCCCN)C(=O)N[C@@H](CCCCN)C(=O)N[C@@H](C)C(=O)NCC(=O)N[C@@H](CCSC)C(=O)N[C@@H](CCCNC(=N)N)C(=O)N[C@@H](Cc1ccccc1)C(=O)NCC(=O)N[C@@H](CCCCN)C(=O)N2 [SEQ ID NO: 5] (H-GSGVPINVKCRGSRDCLDPCKKAGMRFGKCINSKCHCTP-OH; disulfide 10-30, 16-35, 20-37)
[1]; [13]
  IC50: > 1000 nM
[1]; [14]
  IC50: > 1000 nM
[2]; [15]
  IC50: > 1000 nM
[2]; [16]
  IC50: > 1000 nM
[3]
  IC50: > 1000 nM
Nav1.7
  Activity against Nav1.7 channels: showed additional activity
Panel of 20 ion channels
  Activity on potassium channels: active on a subset of potassium channels
[4]; [17]
  IC50: > 1000 nM
[4]; [18]
  IC50: > 1000 nM
[5]
  IC50: > 1000 nM
Kv1.3 [6]
  activity at 20 µM: < 50%
hERG [7]
  Activity against / inhibition of hERG (Kv11.1): showed additional activity
[8]; [19]
  IC50: > 1000 nM
[8]; [20]
  IC50: > 1000 nM
[9]; [21]
  IC50: > 1000 nM
[9]; [22]
  IC50: > 1000 nM

## CC[C@H](C)[C@@H]1NC(=O)[C@H](CCC(=O)O)NC(=O)[C@H](CCCNC(=N)N)NC(=O)[C@H](CCCNC(=N)N)NC(=O)[C@@H]2CSSC[C@@H](C(=O)N[C@@H](Cc3ccc(O)cc3)C(=O)N[C@@H](CCCNC(=N)N)C(=O)N[C@@H](CC(N)=O)C(=O)O)NC(=O)[C@H](C(C)C)NC(=O)[C@@H]3CSSC[C@H](NC(=O)[C@H](CO)NC(=O)CNC(=O)CNC(=O)[C@H](CCC(N)=O)NC(=O)[C@@H](NC(=O)[C@H](CCCCN)NC(=O)[C@@H](NC(=O)[C@H](CC(N)=O)NC(=O)[C@@H](NC(=O)[C@H](CCC(N)=O)NC(=O)[C@@H](NC(=O)[C@H](CCC(N)=O)NC(=O)[C@H](CO)NC(=O)CN)C(C)C)[C@@H](C)O)C(C)C)CSSC[C@H](NC(=O)[C@H](CCCCN)NC(=O)CNC(=O)[C@H](C)NC(=O)[C@H](C)NC(=O)[C@H](C(C)C)NC(=O)CNC1=O)C(=O)N[C@@H]([C@@H](C)CC)C(=O)N[C@@H](CC(N)=O)C(=O)NCC(=O)N[C@@H](CCCCN)C(=O)N3)C(=O)N[C@@H](C)C(=O)N[C@@H](CO)C(=O)N[C@@H](C(C)C)C(=O)N2 [SEQ ID NO: 10] (H-GSQVQTNVKCQGGSCASVCRREIGVAAGKCINGKCVCYRN-OH; disulfide 10-30, 15-35, 19-37)
[1]; [13]
  IC50: > 1000 nM
[1]; [14]
  IC50: > 1000 nM
[2]; [15]
  IC50: > 1000 nM
[2]; [16]
  IC50: > 1000 nM
[3]
  IC50: > 1000 nM
[4]; [17]
  IC50: > 1000 nM
[4]; [18]
  IC50: > 1000 nM
[5]
  IC50: > 1000 nM
[8]; [19]
  IC50: > 1000 nM
[8]; [20]
  IC50: > 1000 nM
[9]; [21]
  IC50: > 1000 nM
[9]; [22]
  IC50: > 1000 nM

## CC[C@H](C)[C@H](NC(=O)[C@H](CC(=O)O)NC(=O)[C@@H](NC(=O)[C@@H]1CCCN1C(=O)[C@H](CCCNC(=N)N)NC(=O)[C@H](CO)NC(=O)CN)[C@@H](C)O)C(=O)N[C@@H](CCCCN)C(=O)N[C@H]1CSSC[C@@H]2NC(=O)[C@H](CCCNC(=N)N)NC(=O)CNC(=O)[C@H](CC(N)=O)NC(=O)[C@H]([C@@H](C)O)NC(=O)[C@H](CCCCN)NC(=O)CNC(=O)[C@H](Cc3ccccc3)NC(=O)[C@H](CCCNC(=N)N)NC(=O)[C@H](CO)NC(=O)[C@H](CCCCN)NC(=O)[C@@H]3CSSC[C@@H](C(=O)N[C@@H](Cc4ccccc4)C(=O)O)NC(=O)[C@H](CC(=O)O)NC(=O)[C@H](CSSC[C@H](NC(=O)[C@H](CCC(N)=O)NC(=O)[C@H](Cc4ccc(O)cc4)NC(=O)[C@H](CO)NC(=O)[C@H](C)NC(=O)[C@H](CO)NC1=O)C(=O)N[C@@H](Cc1ccccc1)C(=O)N1CCC[C@H]1C(=O)N[C@@H](C(C)C)C(=O)N3)NC(=O)[C@H](CC(C)C)NC(=O)CNC(=O)[C@H](CC(N)=O)NC(=O)[C@H](C(C)C)NC2=O [SEQ ID NO: 17] (H-GSRPTDIKCSASYQCFPVCKSRFGKTNGRCVNGLCDCF-OH; disulfide 9-30, 15-35, 19-37)
hERG [10]
  hERG inhibition or binding, previously reported: previously been demonstrated to bind to hERG
Kv1.2
  activity at 20 µM: < 50%
Kv1.3 [6]
  activity at 20 µM: < 50%
hERG [7]
  Activity against / inhibition of hERG (Kv11.1): confirmed hERG inhibition
  activity at 20 µM: < 50%

## GSDRDSCIDKSRCSKYGYYQECQDCCKKAGHNGGTCMFFKCKCA (disulfide 7-25, 13-36, 22-41, 26-43) [SEQ ID NO: 14]
Panel of 20 ion channels
  Activity on potassium channels: showed activity against additional potassium channels
hERG [10]
  hERG inhibition or binding, previously reported: previously reported to inhibit hERG channels
Kv1.2; peptide at 0.2 μM
  activity at 0.2 µM: < 80%
Kv1.2
  activity at 20 µM: < 50%
hERG [7]
  activity at 20 µM: < 50%

## GSGDCLPHLKRCKENNDCCSKKCKRRGANPEKRCR [SEQ ID NO: 11]
Panel of 20 ion channels
  Activity against additional potassium channels or serotonin receptors (e.g., 5-HT3a): showed activity against additional potassium channels or serotonin receptors (e.g., 5-HT3a)
[11]
  Inhibition of calcium channels (ryanodine receptors), reported: reported to inhibit calcium channels (ryanodine receptors)

## GSNFKVEGACSKPCRKYCIDKGARNGKCINGRCHCYY [SEQ ID NO: 12]
Kv1.3 [12]
  Kv1.3 inhibition, previously reported: previously reported to inhibit Kv1.3
Kv1.3 [6]; 0.2 or 20 μM, FIG. 2
  Kv1.3 inhibition: inhibit Kv1.3, consistent with these results

## GSSEKDCIKHLQRCRENKDCCSKKCSRRGTNPEKRCR [SEQ ID NO: 3]
Panel of 20 ion channels
  Activity against additional potassium channels or serotonin receptors (e.g., 5-HT3a): showed activity against additional potassium channels or serotonin receptors (e.g., 5-HT3a)
[11]
  Inhibition of calcium channels (ryanodine receptors), reported: reported to inhibit calcium channels (ryanodine receptors)
